Experiments:
integrin αvβ3 = target: T1, integrin αvβ3 (Homo sapiens, UniProt P05106+P06756); experiment: Integrin αvβ3 assay (competition between vitronectin and the test substance for binding to solid phase-bound integrin αvβ3); settings: integrin αvβ3 from human placenta; human vitronectin as competing ligand; result in words only
T1 construct: from tissue; host or cells: human placenta
Method: For the identification and assessment of integrin αvβ3 ligands, a test system was used which was based on competition between the natural integrin αvβ3 ligand vitronectin and the test substance for binding to solid phase-bound integrin αvβ3.
• Microtiter plates coated with 250 ng/ml of integrin αvβ3 in 0.05 M NaHCO3 pH 9.2; 0.1 ml/well; • saturation with 1% powdered milk/assay buffer; 0.3 ml/well; 0.5 h/RT • 3× washing with 0.05% Tween 20/assay buffer • test substance in 0.1% powdered milk/assay buffer, 50 μl/well+0 μg/ml or 2 μg/ml of human vitronectin (Boehringer Ingelheim T007) in 0.1% powdered milk/assay buffer, 50 μl/well; 1 h/RT • 3× washing with 0.05% Tween 20/assay buffer • 1 μg/ml of anti human vitronectin antibody coupled to peroxidase (Kordia SAVN-APHRP) in 0.1% powdered milk/assay buffer; 0.1 ml/well; 1 h/RT • 3× washing with 0.05% Tween 20/assay buffer • 0.1 ml/well of peroxidase substrate • stop reaction with 0.1 ml/well of 2 M H2SO4 • measurement of the absorption at 450 nm
Integrin αvβ3: Human placenta is solubilized with Nonidet and integrin αvβ3 affinity-purified on a GRGDSPK matrix (elution with EDTA). Impurities due to integrin αIIbβ3 and human serum albumin, and the detergent and EDTA are removed by anion-exchange chromatography.
Assay buffer: 50 mM Tris pH 7.5; 100 mM NaCl; 1 mM CaCl2; 1 mM MgCl2; 10 μM MnCl2 […]

IC50 values (concentration of the ligand at which 50% of the ligand is displaced) (integrin αvβ3) | melting point | Compound
best result | – | O=C(O)CC1CCC(=O)N(CC(=O)NCc2ccc(-c3nc4ccccc4[nH]3)cc2)c2ccccc21 (centres unmarked) [Example VII, [1-(2-{[4-(1H-Benzimidazol-2-yl)benzyl]amino}-2-oxoethyl)-2-oxo-2,3,4,5-tetrahydro-1H-1-benzazepin-5-yl]acetic acid]
– | 231 °C (dec.) | CC(C)(C)OC(=O)CC1CCC(=O)N(CC(=O)NCc2ccc(Nc3nc4ccccc4[nH]3)cc2)c2ccccc21 (centres unmarked) [Example 99, tert-Butyl [1-(2-{[4-(1H-benzimidazole-2-ylamino)benzyl]amino}-2-oxoethyl)-2-oxo-2,3,4,5-tetrahydro-1H-1-benzazepine-5-yl]acetate]
